This passage reports T/C results from PubChem BioAssay AID328 (DTP/NCI, 2004).

In this assay the test system is BDF1 mice, P388 leukemia ip, median survival T/C. In words: NCI In Vivo Anticancer Drug Screen. Data for tumor model P388 Leukemia (intraperitoneal) in B6D2F1 (BDF1) mice. As to conditions: endpoint: median survival time, higher = longer survival. In short, it runs like this: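 Vehicle-dosed animals serve as the reference; survival of compound-dosed, tumour-implanted mice is divided by it.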

The mark [1] stands for this setting: dose: 50.0 mg/kg/injection, schedule: Q01DX009 (ip), vehicle: saline with Tween-80.
Setting [2] is: dose: 100.0 mg/kg/injection, schedule: Q01DX009 (ip), vehicle: saline with Tween-80.
Where [3] appears, read: dose: 200.0 mg/kg/injection, schedule: Q01DX009 (ip), vehicle: saline with Tween-80.
Where [4] appears, read: dose: 50.0 mg/kg/injection, schedule: Q01DX009 (ip), vehicle: Klucel (hydroxypropylcellulose) (HPC).
Where [5] appears, read: dose: 100.0 mg/kg/injection, schedule: Q01DX009 (ip), vehicle: Klucel (hydroxypropylcellulose) (HPC).
The mark [6] stands for this setting: dose: 200.0 mg/kg/injection, schedule: Q01DX009 (ip), vehicle: Klucel (hydroxypropylcellulose) (HPC).
[7] abbreviates: dose: 400.0 mg/kg/injection, schedule: Q01DX009 (ip), vehicle: Klucel (hydroxypropylcellulose) (HPC).
The mark [8] stands for this setting: dose: 12.5 mg/kg/injection, schedule: Q04DX003 (ip), vehicle: other.
The mark [9] stands for this setting: dose: 25.0 mg/kg/injection, schedule: Q04DX003 (ip), vehicle: other.
Setting [10] is: dose: 50.0 mg/kg/injection, schedule: Q04DX003 (ip), vehicle: other.
Setting [11] is: dose: 100.0 mg/kg/injection, schedule: Q04DX003 (ip), vehicle: other.

“And” between values parts separate entries of the source, which are not always exact repeats. Equal values may be shown once. Toxic doses and inconclusive results are not listed.

For `C/C(=N/S(=O)(=O)c1ccc(C)cc1)OCCN(C)C`, the T/C was 104 % of control (dose: 1.5 mg/kg/injection, schedule: Q01DX009 (ip), vehicle: saline with Tween-80); 109 % of control (dose: 3.0 mg/kg/injection, schedule: Q01DX009 (ip), vehicle: saline with Tween-80); 100 % of control (dose: 3.0 mg/kg/injection, schedule: Q04DX003 (ip), vehicle: saline with Tween-80); 118 % of control (dose: 6.0 mg/kg/injection, schedule: Q01DX009 (ip), vehicle: saline with Tween-80); 100 % of control (dose: 6.0 mg/kg/injection, schedule: Q04DX003 (ip), vehicle: saline with Tween-80).
Take `CS(=O)(=O)Nc1ccccc1-c1nc2ccccc2c(=O)o1`: the T/C was 105 % of control (dose: 25.0 mg/kg/injection, schedule: Q01DX009 (ip), vehicle: saline with Tween-80); 104 % of control under setting [1]; 105 % of control under setting [2]; 103 % of control under setting [3].
As for `O=Nc1c(S(=O)(=O)O)cc2cc(S(=O)(=O)O)cc(O)c2c1O.[Cu+2]`, the T/C runs as follows: (dose: 1.25 mg/kg/injection, schedule: Q04DX003 (ip), vehicle: saline) 97 % of control; (dose: 2.5 mg/kg/injection, schedule: Q04DX003 (ip), vehicle: saline) 91 % of control; (dose: 5.0 mg/kg/injection, schedule: Q04DX003 (ip), vehicle: saline) 115 % of control.
For the compound `CC(C)(C)C1C2N1C1(c3ccccc3)OC2(c2ccccc2)c2ccccc21` (stereo not drawn), the T/C is 106 % of control under setting [4], 100 % of control under setting [5] and 104 % of control under setting [6].
Consider `C=CN1CCCC1=O`, for which the T/C (dose: 100.0 mg/kg/injection, schedule: Q01DX001 (ip), vehicle: saline) is 100 % of control; the T/C (dose: 100.0 mg/kg/injection, schedule: Q01DX009 (ip), vehicle: saline) is 90 % of control; the T/C (dose: 200.0 mg/kg/injection, schedule: Q01DX001 (ip), vehicle: saline) was 95 % of control; the T/C (dose: 200.0 mg/kg/injection, schedule: Q01DX009 (ip), vehicle: saline) is 118 % of control; the T/C (dose: 400.0 mg/kg/injection, schedule: Q01DX001 (ip), vehicle: saline) was 100 % of control; the T/C (dose: 400.0 mg/kg/injection, schedule: Q01DX009 (ip), vehicle: saline) is 122 % of control.
Consider `CCCOC(=O)c1ccc([N+](=O)[O-])cc1`, for which the T/C runs as follows: under setting [5], 95 % of control; under setting [6], 100 % of control; under setting [7], 100 % of control.
Consider `CC(=O)NNc1ccc([N+](=O)[O-])cc1`, for which the T/C reads like this: under setting [5], 100 % of control; (dose: 100.0 mg/kg/injection, schedule: Q04DX003 (ip), vehicle: Klucel (hydroxypropylcellulose) (HPC)) 105 % of control; under setting [6], 90 % of control; (dose: 200.0 mg/kg/injection, schedule: Q04DX003 (ip), vehicle: Klucel (hydroxypropylcellulose) (HPC)) 90 % of control; under setting [7], 90 % of control; (dose: 400.0 mg/kg/injection, schedule: Q04DX003 (ip), vehicle: Klucel (hydroxypropylcellulose) (HPC)) 90 % of control.
For `[Cl][Hg][CH2]CC1CC=CCC1` (stereo not drawn), the T/C by setting is: (dose: 6.25 mg/kg/injection, schedule: Q01DX009 (ip), vehicle: saline with Tween-80) 113 % of control; (dose: 6.25 mg/kg/injection, schedule: Q04DX003 (ip), vehicle: saline sonified) 104 % of control; (dose: 12.5 mg/kg/injection, schedule: Q01DX009 (ip), vehicle: saline with Tween-80) 117 % of control; (dose: 12.5 mg/kg/injection, schedule: Q04DX003 (ip), vehicle: saline sonified) 122 % of control; (dose: 25.0 mg/kg/injection, schedule: Q04DX003 (ip), vehicle: saline sonified) 118 % of control.
For the compound `O/N=C1/CCCc2ccccc21`, the T/C is 86 % of control under setting [2]; 86 % of control under setting [3]; 86 % of control (dose: 400.0 mg/kg/injection, schedule: Q01DX009 (ip), vehicle: saline with Tween-80).
With `CC(C)(C)OOC(=O)c1ccccc1O`, the T/C by setting is: under setting [8], 102 % of control; under setting [9], 101 % of control; under setting [1], 122 % of control; under setting [10], 101 % of control; under setting [11], 118 % of control.
Take `C[N+](C)(C)CCC[N+](C)(C)C`: the T/C is 100 % of control (dose: 100.0 mg/kg/injection, schedule: Q04DX003 (ip), vehicle: saline); 114 % of control (dose: 200.0 mg/kg/injection, schedule: Q01DX006 (ip), vehicle: saline); 104 % of control (dose: 200.0 mg/kg/injection, schedule: Q04DX003 (ip), vehicle: saline); 151 % of control (dose: 300.0 mg/kg/injection, schedule: Q01DX006 (ip), vehicle: saline); 94 % of control (dose: 400.0 mg/kg/injection, schedule: Q01DX006 (ip), vehicle: saline); 93 % of control (dose: 400.0 mg/kg/injection, schedule: Q04DX003 (ip), vehicle: saline).
With `CCOC(=O)c1ccc(NC(=O)Nc2c(C)n(C)n(-c3ccccc3)c2=O)cc1`, the T/C under setting [4] was 100 % of control, the T/C under setting [5] was 100 % of control and the T/C under setting [6] is 90 % of control.
For the compound `c1ccc2cc(OCC3CO3)c(OCC3CO3)cc2c1` (stereo not drawn), the T/C was 161 % of control (dose: 30.0 mg/kg/injection, schedule: Q01DX005 (ip), vehicle: saline with Tween-80); 157 % of control (dose: 60.0 mg/kg/injection, schedule: Q01DX005 (ip), vehicle: saline with Tween-80); 176 % of control (dose: 120.0 mg/kg/injection, schedule: Q01DX005 (ip), vehicle: saline with Tween-80).
As for `Clc1ncc(Br)c(Cl)n1`, the T/C is 95 % of control (dose: 2.7 mg/kg/injection, schedule: Q01DX009 (ip), vehicle: Klucel (hydroxypropylcellulose) (HPC)); 95 % of control (dose: 4.1 mg/kg/injection, schedule: Q01DX009 (ip), vehicle: Klucel (hydroxypropylcellulose) (HPC)); 109 % of control (dose: 8.2 mg/kg/injection, schedule: Q01DX009 (ip), vehicle: Klucel (hydroxypropylcellulose) (HPC)); 100 % of control (dose: 8.3 mg/kg/injection, schedule: Q01DX009 (ip), vehicle: Klucel (hydroxypropylcellulose) (HPC)); 100 % of control and 109 % of control (dose: 12.5 mg/kg/injection, schedule: Q01DX009 (ip), vehicle: Klucel (hydroxypropylcellulose) (HPC)); 104 % of control (dose: 13.75 mg/kg/injection, schedule: Q04DX003 (ip), vehicle: Klucel (hydroxypropylcellulose) (HPC)). The T/C (dose: 18.0 mg/kg/injection, schedule: Q01DX009 (ip), vehicle: Klucel (hydroxypropylcellulose) (HPC)) is 100 % of control; the T/C (dose: 18.75 mg/kg/injection, schedule: Q01DX009 (ip), vehicle: Klucel (hydroxypropylcellulose) (HPC)) is 115 % of control; the T/C (dose: 27.5 mg/kg/injection, schedule: Q04DX003 (ip), vehicle: Klucel (hydroxypropylcellulose) (HPC)) is 100 % of control; the T/C (dose: 55.0 mg/kg/injection, schedule: Q04DX003 (ip), vehicle: Klucel (hydroxypropylcellulose) (HPC)) was 108 % of control; the T/C (dose: 80.0 mg/kg/injection, schedule: Q04DX003 (ip), vehicle: Klucel (hydroxypropylcellulose) (HPC)) was 108 % of control; the T/C (dose: 125.0 mg/kg/injection, schedule: Q04DX003 (ip), vehicle: Klucel (hydroxypropylcellulose) (HPC)) is 100 % of control.
As for `CC(=O)CC(C)(C)N`, the T/C is, setting by setting: (dose: 25.0 mg/kg/injection, schedule: Q01DX009 (ip), vehicle: saline) 95 % of control; (dose: 50.0 mg/kg/injection, schedule: Q01DX009 (ip), vehicle: saline) 104 % of control.
Take `CN(C)C(=O)c1ccc(C(C)(C)C)cc1`: the T/C is, setting by setting: (dose: 12.5 mg/kg/injection, schedule: Q01DX009 (ip), vehicle: other) 104 % of control; under setting [8], 106 % of control; (dose: 25.0 mg/kg/injection, schedule: Q01DX009 (ip), vehicle: other) 103 % of control; under setting [9], 121 % of control; (dose: 50.0 mg/kg/injection, schedule: Q01DX009 (ip), vehicle: other) 113 % of control; under setting [10], 97 % of control. Besides, the T/C (dose: 100.0 mg/kg/injection, schedule: Q01DX009 (ip), vehicle: other) is 101 % of control; the T/C under setting [11] is 106 % of control; the T/C (dose: 200.0 mg/kg/injection, schedule: Q04DX003 (ip), vehicle: other) was 95 % of control.
